Results: the NIST ThermoML archive (doi:10.1021/je025657+)
“And” between values parts separate entries of the source, which are not always exact repeats. Equal entries are not always repeated.

Settings: for vapor or sublimation pressure: Closed cell (Static) method

COC(F)(F)F [trifluoromethoxymethane]
Settings	mass density [kg/m3]
240 K, 17 kPa, Gas	0.84
240 K, 25.1 kPa, Gas	1.25
240 K, 36.9 kPa, Gas	1.87
240 K, 517.1 kPa, Liquid	1262.64
240 K, 1011 kPa, Liquid	1263.83
240 K, 1516.2 kPa, Liquid	1265.03
240 K, 2014.7 kPa, Liquid	1266.21
240 K, 2517.3 kPa, Liquid	1267.38
240 K, 3024.1 kPa, Liquid	1268.56
240 K, 3529.6 kPa, Liquid	1269.72
240 K, 4031 kPa, Liquid	1270.86
240 K, 4515.5 kPa, Liquid	1271.95
240 K, 5038.9 kPa, Liquid	1273.12
240 K, 5511.8 kPa, Liquid	1274.16
240 K, 6024.7 kPa, Liquid	1275.29
240 K, 6511.7 kPa, Liquid	1276.35
240 K, 6981.1 kPa, Liquid	1277.36
250 K, 19.2 kPa, Gas	0.91
250 K, 28.3 kPa, Gas	1.34
250 K, 41.7 kPa, Gas	1.98
250 K, 61.2 kPa, Gas	2.94
250 K, 89.4 kPa, Gas	4.33
250 K, 505.1 kPa, Liquid	1236.18
250 K, 1008.8 kPa, Liquid	1237.55
250 K, 1508.8 kPa, Liquid	1238.91
250 K, 2020.1 kPa, Liquid	1240.28
250 K, 2517.2 kPa, Liquid	1241.59
250 K, 3037 kPa, Liquid	1242.95
250 K, 3530.8 kPa, Liquid	1244.22
250 K, 4030.5 kPa, Liquid	1245.49
250 K, 4537.2 kPa, Liquid	1246.78
250 K, 5042.6 kPa, Liquid	1248.05
250 K, 5550.6 kPa, Liquid	1249.31
250 K, 6026.5 kPa, Liquid	1250.48
250 K, 6529.6 kPa, Liquid	1251.71
250 K, 6975.1 kPa, Liquid	1252.79
260 K, 18.7 kPa, Gas	1.11
260 K, 27.6 kPa, Gas	1.53
260 K, 40.7 kPa, Gas	2.15
260 K, 59.9 kPa, Gas	3.03
260 K, 87.8 kPa, Gas	4.4
260 K, 127.7 kPa, Gas	6.4
260 K, 507.8 kPa, Liquid	1209.12
260 K, 1009.3 kPa, Liquid	1210.7
260 K, 1499.4 kPa, Liquid	1212.21
260 K, 2004.5 kPa, Liquid	1213.76
260 K, 2515.8 kPa, Liquid	1215.3
260 K, 3012.1 kPa, Liquid	1216.77
260 K, 3527.2 kPa, Liquid	1218.29
260 K, 4018 kPa, Liquid	1219.71
260 K, 4522 kPa, Liquid	1221.16
260 K, 5039.1 kPa, Liquid	1222.63
260 K, 5512.3 kPa, Liquid	1223.96
260 K, 6040.8 kPa, Liquid	1225.42
260 K, 6546.9 kPa, Liquid	1226.81
260 K, 6987.4 kPa, Liquid	1227.99
270 K, 23.7 kPa, Gas	1.1
270 K, 35 kPa, Gas	1.6
270 K, 51.5 kPa, Gas	2.35
270 K, 75.7 kPa, Gas	3.49
270 K, 110.6 kPa, Gas	5.15
270 K, 160.6 kPa, Gas	7.63
270 K, 500.8 kPa, Liquid	1180.45
270 K, 1001.8 kPa, Liquid	1182.27
270 K, 1515.4 kPa, Liquid	1184.1
270 K, 1999.2 kPa, Liquid	1185.81
270 K, 2500.7 kPa, Liquid	1187.53
270 K, 3017 kPa, Liquid	1189.29
270 K, 3484.3 kPa, Liquid	1190.86
270 K, 4038.2 kPa, Liquid	1192.68
270 K, 4513.3 kPa, Liquid	1194.24
270 K, 5047.2 kPa, Liquid	1195.96
270 K, 5542.1 kPa, Liquid	1197.53
270 K, 6036.1 kPa, Liquid	1199.08
270 K, 6529.6 kPa, Liquid	1200.61
270 K, 6973.6 kPa, Liquid	1201.96
280 K, 27.5 kPa, Gas	1.21
280 K, 40.5 kPa, Gas	1.79
280 K, 59.6 kPa, Gas	2.61
280 K, 87.6 kPa, Gas	3.89
280 K, 128.3 kPa, Gas	5.75
280 K, 186.4 kPa, Gas	8.53
280 K, 269 kPa, Gas	12.52
280 K, 454.4 kPa, Liquid	1150.61
280 K, 985.2 kPa, Liquid	1152.87
280 K, 1507.7 kPa, Liquid	1155.03
280 K, 1992.9 kPa, Liquid	1157.02
280 K, 2510.8 kPa, Liquid	1159.1
280 K, 3011.5 kPa, Liquid	1161.06
280 K, 3522.2 kPa, Liquid	1163.04
280 K, 4037.2 kPa, Liquid	1164.99
280 K, 4483.8 kPa, Liquid	1166.68
280 K, 4942.1 kPa, Liquid	1168.36
280 K, 5533.2 kPa, Liquid	1170.51
280 K, 5977.4 kPa, Liquid	1172.09
280 K, 6516.6 kPa, Liquid	1173.99
280 K, 7008.7 kPa, Liquid	1175.7
290 K, 18.9 kPa, Gas	0.76
290 K, 30.4 kPa, Gas	1.28
290 K, 50.3 kPa, Gas	2.25
290 K, 74.2 kPa, Gas	3.26
290 K, 109 kPa, Gas	4.83
290 K, 159.4 kPa, Gas	7.09
290 K, 232.8 kPa, Gas	10.52
290 K, 338.9 kPa, Gas	15.78
290 K, 493.5 kPa, Liquid	1119.5
290 K, 976.7 kPa, Liquid	1121.93
290 K, 979.3 kPa, Liquid	1121.87
290 K, 1475.8 kPa, Liquid	1124.36
290 K, 1999.9 kPa, Liquid	1126.86
290 K, 2466.6 kPa, Liquid	1129.04
290 K, 2989.9 kPa, Liquid	1131.43
290 K, 3492.2 kPa, Liquid	1133.73
290 K, 4029.3 kPa, Liquid	1136.09
290 K, 4505 kPa, Liquid	1138.14
290 K, 4999.6 kPa, Liquid	1140.25
290 K, 5546.1 kPa, Liquid	1142.55
290 K, 6046.4 kPa, Liquid	1144.61
290 K, 6496.3 kPa, Liquid	1146.42
290 K, 6981.5 kPa, Liquid	1148.28
300 K, 31.3 kPa, Gas	1.25
300 K, 46.2 kPa, Gas	1.89
300 K, 68 kPa, Gas	2.77
300 K, 100.1 kPa, Gas	4.12
300 K, 146.6 kPa, Gas	6.12
300 K, 214 kPa, Gas	9.08
300 K, 306.3 kPa, Gas	13.34
300 K, 439.5 kPa, Gas	19.94
300 K, 589.3 kPa, Gas	28.11
300 K, 617 kPa, Liquid	1086.54
300 K, 658.2 kPa, Liquid	1086.45
300 K, 913.6 kPa, Liquid	1088.34
300 K, 1058.4 kPa, Liquid	1088.91
300 K, 1466.6 kPa, Liquid	1091.63
300 K, 1522.9 kPa, Liquid	1091.63
300 K, 1998.6 kPa, Liquid	1094.68
300 K, 2016.1 kPa, Liquid	1094.48
300 K, 2526.4 kPa, Liquid	1097.64
300 K, 2545.5 kPa, Liquid	1097.41
300 K, 3023.5 kPa, Liquid	1100.35
300 K, 3063.2 kPa, Liquid	1100.24
300 K, 3486.7 kPa, Liquid	1102.83
300 K, 3535.6 kPa, Liquid	1102.72
300 K, 4015.2 kPa, Liquid	1105.57
300 K, 4063.9 kPa, Liquid	1105.45
300 K, 4499.8 kPa, Liquid	1108.05
300 K, 4569.3 kPa, Liquid	1107.99
300 K, 5014.6 kPa, Liquid	1110.58
300 K, 5140.6 kPa, Liquid	1110.81
300 K, 5517 kPa, Liquid	1113.05
300 K, 5669.7 kPa, Liquid	1113.35
300 K, 6023 kPa, Liquid	1115.44
300 K, 6155.2 kPa, Liquid	1115.66
300 K, 6499 kPa, Liquid	1117.65
300 K, 6683.2 kPa, Liquid	1118.07
300 K, 6960.3 kPa, Liquid	1119.71
300 K, 7091.7 kPa, Liquid	1119.94
310 K, 38.3 kPa, Gas	1.49
310 K, 56.5 kPa, Gas	2.22
310 K, 83.1 kPa, Gas	3.29
310 K, 121.9 kPa, Gas	4.87
310 K, 178.2 kPa, Gas	7.22
310 K, 258.9 kPa, Gas	10.69
310 K, 372.5 kPa, Gas	15.8
310 K, 528.4 kPa, Gas	23.4
310 K, 742.6 kPa, Gas	35.17
310 K, 813.1 kPa, Liquid	1051.26
310 K, 836.7 kPa, Liquid	1051.44
310 K, 861.7 kPa, Liquid	1051.63
310 K, 1006.3 kPa, Liquid	1053.19
310 K, 1033.6 kPa, Liquid	1052.9
310 K, 1512.4 kPa, Liquid	1056.88
310 K, 1533.9 kPa, Liquid	1056.54
310 K, 2000.5 kPa, Liquid	1060.31
310 K, 2046.2 kPa, Liquid	1060.13
310 K, 2498.6 kPa, Liquid	1063.7
310 K, 2539.9 kPa, Liquid	1063.48
310 K, 3027.3 kPa, Liquid	1067.18
310 K, 3099.5 kPa, Liquid	1067.15
310 K, 3517 kPa, Liquid	1070.31
310 K, 3564.5 kPa, Liquid	1070.1
310 K, 4017.7 kPa, Liquid	1073.4
310 K, 4131.5 kPa, Liquid	1073.59
310 K, 4531.7 kPa, Liquid	1076.5
310 K, 5049.8 kPa, Liquid	1079.54
310 K, 5149.7 kPa, Liquid	1079.59
310 K, 5542 kPa, Liquid	1082.34
310 K, 5630.8 kPa, Liquid	1082.31
310 K, 6021.1 kPa, Liquid	1085.02
310 K, 6210.4 kPa, Liquid	1085.5
310 K, 6538.6 kPa, Liquid	1087.83
310 K, 6998 kPa, Liquid	1090.22
310 K, 7191.1 kPa, Liquid	1090.69
320 K, 46.4 kPa, Gas	1.77
320 K, 68.4 kPa, Gas	2.64
320 K, 100.6 kPa, Gas	3.89
320 K, 147.5 kPa, Gas	5.74
320 K, 215.4 kPa, Gas	8.49
320 K, 312.9 kPa, Gas	12.57

Liquid
Settings	mass density	vapor or sublimation pressure
240 K	1261.55 kg/m3 and 1261.54 kg/m3	–
250 K	1235.07 kg/m3	–
260 K	1208.02 kg/m3	–
270 K	1179.44 kg/m3	–
280 K	1150.07 kg/m3	–
290 K	1119.31 kg/m3	–
300 K	1086.15 kg/m3 and 1086.47 kg/m3 and 1086.56 kg/m3	607.7 kPa and 607.3 kPa
305 K	–	698.7 kPa
310 K	1054.67 kg/m3 [middle of 4 runs]	800.9 kPa and 800.7 kPa and 801.7 kPa
315 K	–	914.3 kPa

Gas, Burnett expansion method
Settings	mass density [kg/m3]
300 K, 124.2 kPa	5.136
300 K, 170.5 kPa	7.128
300 K, 183.4 kPa	7.703
300 K, 251.4 kPa	10.75
300 K, 268.7 kPa	11.56
300 K, 364.7 kPa	16.13
300 K, 388.1 kPa	17.29
300 K, 519.4 kPa	24.16
300 K, 550.3 kPa	25.89
310 K, 128.7 kPa	5.137
310 K, 177.1 kPa	7.139
310 K, 190.3 kPa	7.705
310 K, 261 kPa	10.74
310 K, 279.4 kPa	11.56
310 K, 380.4 kPa	16.14
310 K, 405 kPa	17.3
310 K, 545.9 kPa	24.27
310 K, 578.6 kPa	25.97
310 K, 759.9 kPa	36.24
320 K, 133.1 kPa	5.135
320 K, 183.4 kPa	7.139
320 K, 197.1 kPa	7.701
320 K, 270.9 kPa	10.74
320 K, 289.9 kPa	11.55
320 K, 395.7 kPa	16.14
